Assay results published in PMC12006171, “Marsupial cathelicidins: characterization, antimicrobial activity and evolution in this unique mammalian lineage” (Frontiers in Immunology, 2025).
Where two headings read alike, the source gives them in different places. Where a SMILES comes first, the peptide text is derived from it.

Key:
[1] = system: six bacteria (S. aureus, E. coli, P. aeruginosa; ATCC and clinical isolate); parameters: method as in 4 sources, ref Peel et al 2016 ||| ref Peel et al 2021 ||| ref Wang et al 2011 ||| ref Peel et al 2017; conditions: mature peptide; Y/N summary from earlier study; ref Peel et al 2021; cited from earlier work
[2] = system: three fungi (Candida krusei, Candida parapsilosis, Candida albicans); parameters: method as in 4 sources, ref Peel et al 2016 ||| ref Peel et al 2021 ||| ref Wang et al 2011 ||| ref Peel et al 2017; conditions: mature peptide; Y/N summary from earlier study; ref Peel et al 2021; cited from earlier work
Chlamydia = conditions: in vitro; cited from earlier work
Source text: Many marsupial and monotreme cathelicidins were closely related to the classic cathelicidins found in eutherians. These cathelicidins sit within clade II in the phylogenetic tree, sister to eutherians but were not orthologous ( Figure 3 ). Classic marsupial cathelicidins were encoded in cluster A in the genome of all marsupials and monotremes studied, syntenic to the single cathelicidin gene/cluster in eutherians ( Figure 2 ). Many of these were antimicrobial and bactericidal, with MICs equal to or less than eutherian peptides such as cow BMAP-27 and -28 ([87]) and human LL-37, including again ...

[3] = system: six bacteria (S. aureus, E. coli, P. aeruginosa; ATCC and clinical isolate); assay type: cell-based; conditions: synthesized mature peptide
How it was run: (§1)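 Broth microdilution per CLSI M07-A/M26A: DMSO-solubilized cathelicidin mature peptides at final 64-0.125μg/mL in Mueller Hinton broth (with or without 10% lysed horse blood, with or without calcium/magnesium), final inoculum 5 x 10^5 CFU/mL, 35°C for 20–24 hours. MIC = lowest concentration preventing visible growth.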

[4] = system: three fungi (Candida krusei, Candida parapsilosis, Candida albicans); test: Antifungal screening, summary over the panel of fungi (broth microdilution); assay type: cell-based; conditions: synthesized mature peptide
Procedure: Antimicrobial testing of 78 cathelicidin MPs was performed in two phases as outlined in Figure 1 . In phase I, 40 peptides (27 extant and 13 ancestral) were selected for testing based on rank (outlined above) and similarity to published marsupial cathelicidins with known antimicrobial activity ([33], [41]–[43]). These peptides were tested against nine bacteria (Staphylococcus aureus ATCC 29213 and clinical isolate, Escherichia coli ATCC 25922 and clinical isolate, Pseudomonas aeruginosa ATCC 27853 and clinical isolate, Streptococcus agalactiae ATCC 12386 and clinical isolate, Streptococcus pneumoniae ATCC 49619) and three fungi (Candida krusei ATCC 6258, Candida parapsilosis ATCC 22019, and Candida albicans clinical isolate). Details regarding these strains are available in Supplementary Table 4 . The antimicrobial activity of cathelicidins was determined as the minimum inhibitory concentration (MIC), which was the lowest concentration of cathelicidin that prevented visible bacterial or fungal growth, relative to the negative control. […] Minimum bactericidal concentration (MBC) and/or minimum fungicidal concentration (MFC) was conducted to determine microbicidal versus static action. Activity against S. aureus ATCC, E. coli ATCC, and Pseudomonas aeruginosa ATCC 27853 was examined in the presence of divalent cations to determine the impact of inhibitors.
Antimicrobial activity was determined using a broth microdilution susceptibility assay in 96 well polypropylene plates according to Clinical Laboratory Standards Institute guidelines M07-A and M26A as described previously ([33], [42], [43]). The bacterial and fungal isolates from humans and animals used in this study are outlined in Supplementary Table 4 . Only yeasts were included in the panel of fungi as they have been used in the susceptibility testing of eutherian ([3], [81]–[83]) and other marsupial cathelicidins previously ([33], [42], [43]). Cathelicidin mature peptides were solubilized in DMSO and serially diluted in duplicate from 128-0.25μg/mL in a final volume of 100µL. For bacteria, cathelicidins were diluted in Mueller Hinton Broth (MHB) with or without 10% lysed horse blood, and with (MH II B) or without (MHB) calcium and magnesium cations. For fungi, cathelicidins were diluted in Roswell Park Memorial Institute medium (RPMI)-1640 MOPS. Ampicillin or tetracycline were included as a positive control for Gram-positive and -negative bacteria respectively, while amphotericin B was used for fungi. A media-only negative control and growth control (no cathelicidin) were also included on each plate. Bacteria were sub-cultured on Muller Hinton agar (MHA) or sheep blood agar (BA), and fungi on Sabouraud dextrose agar (SAB), 20–24 hours prior to the test. Colonies were suspended in saline, the concentration adjusted to a 0.5 McFarland standard, and then diluted in media to a concentration of 1.0 x 10^6 cells/mL. Then, 100μL was added to each well of the cathelicidin dilution plate, giving a final inoculum density of 5 x 10^5 CFU/mL and cathelicidin concentration of 64-0.125μg/mL. Colony counts were performed on MHA/BA/SAB to confirm inoculum density. All plates were incubated at 35°C for 20–24 hours, depending on the strain.
Colonies were counted and compared to the colony count of the starting inoculum.

[5] = system: panel of 11 bacteria and three fungi; test: Antimicrobial screening phases I and II, summary over all strains; assay type: cell-based; conditions: active = MIC ≤64µg/mL against the strains tested
Procedure: Antimicrobial testing of 78 cathelicidin MPs was performed in two phases as outlined in Figure 1 . In phase I, 40 peptides (27 extant and 13 ancestral) were selected for testing based on rank (outlined above) and similarity to published marsupial cathelicidins with known antimicrobial activity ([33], [41]–[43]). These peptides were tested against nine bacteria (Staphylococcus aureus ATCC 29213 and clinical isolate, Escherichia coli ATCC 25922 and clinical isolate, Pseudomonas aeruginosa ATCC 27853 and clinical isolate, Streptococcus agalactiae ATCC 12386 and clinical isolate, Streptococcus pneumoniae ATCC 49619) and three fungi (Candida krusei ATCC 6258, Candida parapsilosis ATCC 22019, and Candida albicans clinical isolate). Details regarding these strains are available in Supplementary Table 4 . The antimicrobial activity of cathelicidins was determined as the minimum inhibitory concentration (MIC), which was the lowest concentration of cathelicidin that prevented visible bacterial or fungal growth, relative to the negative control. […]
Antimicrobial activity was determined using a broth microdilution susceptibility assay in 96 well polypropylene plates according to Clinical Laboratory Standards Institute guidelines M07-A and M26A as described previously ([33], [42], [43]). […]

[6] = system: Escherichia coli ATCC 25922; test: microbe, parasite or virus in culture; assay type: cell-based
How it was run: as §1

[7] = system: Escherichia coli clinical isolate - animal; test: microbe, parasite or virus in culture; assay type: cell-based
How it was run: as §1

[8] = system: Pseudomonas aeruginosa ATCC 27853; test: microbe, parasite or virus in culture; assay type: cell-based; conditions: ATCC 27853; read-out: MIC P. aeruginosa ATCC
How it was run: as §1

[9] = system: Pseudomonas aeruginosa clinical isolate - animal; test: microbe, parasite or virus in culture; assay type: cell-based; conditions: clinical isolate - animal; read-out: MIC P. aeruginosa
How it was run: as §1

[10] = system: Staphylococcus aureus ATCC 29213; test: microbe, parasite or virus in culture; assay type: cell-based; conditions: ATCC 29213; read-out: MIC S. aureus ATCC
How it was run: as §1

[11] = system: Staphylococcus aureus clinical isolate - animal; test: microbe, parasite or virus in culture; assay type: cell-based; conditions: clinical isolate - animal; read-out: MIC S. aureus
How it was run: as §1

[12] = system: Streptococcus agalactiae ATCC 12386; test: microbe, parasite or virus in culture; assay type: cell-based; conditions: ATCC 12386; read-out: MIC S. agalactiae ATCC
How it was run: (§2)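 Broth microdilution per CLSI M07-A/M26A; cathelicidin peptides tested at final 64-0.125μg/mL, inoculum 5 x 10^5 CFU/mL, 35°C for 20–24 hours. Bacteria in MHB (±10% lysed horse blood, ±Ca/Mg), yeasts in RPMI-1640 MOPS. MIC = lowest concentration preventing visible growth.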

[13] = system: Streptococcus agalactiae Clinical isolate - animal; test: microbe, parasite or virus in culture; assay type: cell-based; conditions: clinical isolate - animal; read-out: MIC S. agalactiae
How it was run: as §2

[14] = system: Streptococcus pneumoniae ATCC 49619; test: microbe, parasite or virus in culture; assay type: cell-based; conditions: ATCC 49619; read-out: MIC S. pneumoniae ATCC
How it was run: as §2

[15] = system: bacterial and fungal infections in chemotherapy patients; conditions: human, in vivo; cited from earlier work
[16] = in vivo; cited from earlier work

In the case of “KRGGIWKLIRPLGRGAGRILRHFHIDFCGNC [PhciCath5, koala cathelicidin, reference compound]”, the “Antibacterial (MIC <64ug/mL)” value [1] is given as “Y (Peel et al 2021) (Antibacterial (MIC <64ug/mL))”, the “Antifungal (MIC <64ug/mL)” value [2] is given as “Y (Peel et al 2021) (Antifungal (MIC <64ug/mL))” and the “Killing of Chlamydia” value (Chlamydia) is given as “killed Chlamydia in vitro”.

In the case of “RFKRSLSDGVIDTSSLPPRIRDIYLQAKYDIISRILRN [MAP1, marsupial ancestral peptide 1, predicted ancestral cathelicidin of the NGP clade]”, the “Antibacterial (MIC <64ug/mL)” value ([3]; antimicrobial screening Phase I, Y/N summary over bacteria tested, broth microdilution) is reported as “N (Antibacterial (MIC <64ug/mL))”, the “Antifungal (MIC <64ug/mL)” value ([4]; antimicrobial screening Phase I, Y/N summary over fungi tested, broth microdilution) is reported as “N (Antifungal (MIC <64ug/mL))” and the “Antimicrobial activity in the assays” value [5] is reported as “none displayed antimicrobial activity”.

For `CC[C@H](C)[C@H](NC(=O)[C@H](CCCNC(=N)N)NC(=O)[C@H](CCCNC(=N)N)NC(=O)[C@@H]1CCCN1C(=O)[C@H](CC(N)=O)NC(=O)[C@H](CS)NC(=O)[C@H](CCCCN)NC(=O)[C@H](CCCNC(=N)N)NC(=O)[C@@H](NC(=O)[C@H](CC(C)C)NC(=O)[C@H](CC(C)C)NC(=O)[C@H](CS)NC(=O)[C@H](CCCNC(=N)N)NC(=O)[C@H](CCCCN)NC(=O)[C@H](CCCNC(=N)N)NC(=O)[C@H](CCCCN)NC(=O)[C@H](Cc1ccccc1)NC(=O)[C@H](CCCNC(=N)N)NC(=O)[C@H](CC(C)C)NC(=O)[C@@H]1CCCN1C(=O)[C@H](CCC(=O)O)NC(=O)[C@@H]1CCCN1)[C@@H](C)O)C(=O)N[C@H](C(=O)N[C@@H](Cc1ccccc1)C(=O)N[C@@H](CO)C(=O)N[C@@H](CC(C)C)C(=O)N[C@@H](CC(C)C)C(=O)N[C@@H](CCCCN)C(=O)NCC(=O)N[C@@H](CCCCN)C(=O)O)[C@@H](C)O` [TrvuCath2] (H-PEPLRFKRKRCLLTRKCNPRRITFSLLKGK-OH; N-terminus and C-terminus assumed), the “MBC E. coli ATCC” value ([6]; ATCC 25922) was 17.5 (17.5)^17.5 µM, the “MIC E. coli ATCC” value ([6]; ATCC 25922) was 17.5 (17.5)^17.5 µM and the “MIC in the presence of cations E. coli ATCC” value ([6]; ATCC 25922) was 17.5 (17.5)^17.5 µM. For the same molecule, the “MIC E. coli ATCC” value ([6]; MHB without cations, 5 x 10^5 CFU/mL, 35°C 20–24 hours, duplicate) was 64 (64)^64 µg/mL, the “MIC in the presence of cations E. coli ATCC” value ([6]; superscript value, cation-adjusted Mueller Hinton broth) was 64 (64)^64 µg/mL and the “MBC E. coli ATCC” value ([6]; value in brackets, 99.9% reduction in CFU/mL) was 64 (64)^64 µg/mL. The “MBC E. coli” value ([7]; clinical isolate - animal) was 17.5 (17.5)^17.5 µM, the “MIC E. coli” value ([7]; clinical isolate - animal) was 17.5 (17.5)^17.5 µM and the “MIC in the presence of cations E. coli” value ([7]; clinical isolate - animal) was 17.5 (17.5)^17.5 µM. The “MIC E. coli” value ([7]; clinical isolate, MHB without cations, 5 x 10^5 CFU/mL, 35°C 20–24 hours, duplicate) was 64 (64)^64 µg/mL, the “MIC in the presence of cations E. coli” value ([7]; clinical isolate, superscript value, cation-adjusted Mueller Hinton broth) was 64 (64)^64 µg/mL and the “MBC E. coli” value ([7]; clinical isolate, value in brackets, 99.9% reduction in CFU/mL) was 64 (64)^64 µg/mL. For the same molecule, the MIC [8] was >17.5 µM, the MIC [9] was >17.5 µM and the MIC [10] was >17.5 µM. For the same molecule, the MIC [11] was >17.5 µM, the MIC [12] was >17.5 µM and the MIC [13] was >17.5 µM. For the same molecule, the MIC [14] was >17.5 µM, the “Antibacterial (MIC <64ug/mL)” value ([3]; broth microdilution screening, phase I or II, Y/N summary over the bacteria tested) was “Y (Antibacterial (MIC <64ug/mL))” and the “Antifungal (MIC <64ug/mL)” value ([4]; broth microdilution screening, phase I, Y/N summary over the fungi tested) was “N (Antifungal (MIC <64ug/mL))”. The “Antimicrobial activity in the assays” value [5] was “displayed activity”.

In the case of iseganan, the “Bacterial and fungal infections in oral mucositis patients” value [15] is listed as “significantly reducing bacterial and fungal infections” and the “Clinical outcomes in ventilator-associated pneumonia” value [16] is listed as “no difference was observed between treated or placebo groups”.
